Measurements as given in patent US20100305124A1, “Acylated Aminopyridine and Aminopyridazine Insecticides” (BAYER CROPSCIENCE AG, priority 2009, published 2010).

Key:
[1] = system: green peach aphid (Myzus persicae); assay: Myzus test (MYZUPE spray treatment), Chinese cabbage leaf discs; format: in vivo; conditions: foliar, spray on Chinese cabbage discs, read-out: effect in % (aphids killed); for pest or weed control at 500 g/ha: application rate of 500 g/ha; for pest or weed control at 500 ppm: application rate of 500 ppm
Method: Myzus Test (MYZUPE Spray Treatment)
Solvents: 78 parts by weight of acetone • • 1.5 parts by weight of dimethylformamide Emulsifier: 0.5 part by weight of alkylaryl polyglycol ether
An appropriate preparation of active ingredient is prepared by mixing 1 part by weight of active ingredient with the stated amounts of solvents and emulsifier and diluting the concentrate with emulsifier-containing water to the desired concentration.
Discs of Chinese cabbage (Brassica pekinensis) infested with all stages of the green peach aphid (Myzus persicae) are sprayed with a preparation of active ingredient at the desired concentration.
After the desired time, the effect in % is determined. Here, 100% means that all of the aphids have been killed; 0% means that no aphids have been killed.

[2] = system: green peach aphid (Myzus persicae); assay: Myzus test (MYZUPE), sprayed aubergine plants; format: in vivo; conditions: application rate of 500 ppm, spray on aubergine plants, read-out: effect in % (aphids killed)
Method: Solvent: 3 parts by weight of dimethylformamide Emulsifier: 1 part by weight of polyoxyethylenealkyl phenyl ether
An appropriate preparation of active ingredient is prepared by mixing 1 part by weight of active ingredient with the stated amount of solvent and emulsifier and diluting the concentrate with water to the desired concentration.
Aubergine plants (Solanum melongena) infested by all stages of the green peach aphid (Myzus persicae) are sprayed with a preparation of active ingredient at the desired concentration.
After the desired time, the effect in % is determined; here, 100% means that all of the aphids have been killed. Conversely, 0% means that no aphids have been killed.

| SMILES | pest or weed control at 500 g/ha [1] [%] | other results |
| --- | --- | --- |
| COc1ccc(C(=O)Nc2cccnc2)cc1NC(=O)C1CC1 [I-293] | ≥ 80 | – |
| Cc1ccc(C(=O)N(C)c2cccnc2)cc1NC(=O)NC(C)C [I-314] | ≥ 80 | – |
| COC(C)c1c(C(=O)N(C)c2cccnc2)cnn1-c1ncccn1 (stereo not drawn) [I-276] | ≥ 80 | – |
| COc1ccc(C(=O)N(C)c2cccnc2)cc1NC(=O)C(C)(C)C [I-303] | ≥ 80 | – |
| CN(C(=O)c1cn(C)nc1C(F)(F)F)c1ccnnc1 [I-322] | ≥ 80 | – |
| CN(C(=O)c1cnn(CC(F)(F)F)c1C(F)F)c1cccnc1 [I-269] | ≥ 80 | – |
| CN(C(=O)c1cccc(C(F)(F)F)c1)c1cccnc1 [I-262] | ≥ 80 | – |
| CN(C(=O)c1ccc(F)c(C(F)(F)F)c1)c1cccnc1 [I-259] | ≥ 80 | – |
| CCCC(=O)Nc1cc(C(=O)N(C)c2cccnc2)ccc1C [I-315] | ≥ 80 | – |
| CN(C(=O)c1csc(-c2ncccc2Cl)n1)c1cccnc1 [I-278] | ≥ 80 | – |
| COc1ccc(C(=O)N(C)c2cccnc2)cc1NC(=O)C1CCCC1 [I-333] | ≥ 80 | – |
| O=C(Nc1cccnc1)c1cnn(CC(F)(F)F)c1C(F)(F)F [I-282] | ≥ 80 | – |
| CC(=O)Nc1cc(C(=O)N(C)c2cccnc2)ccc1Cl [I-307] | ≥ 80 | – |
| COCc1c(C(=O)N(C)c2cccnc2)cnn1-c1ncccn1 [I-273] | ≥ 80 | – |
| Cc1ccc(C(=O)Nc2cccnc2)cc1NC(=O)C1CC1 [I-292] | ≥ 80 | – |
| CN(C(=O)c1cnn(-c2ncccn2)c1C(C)(F)F)c1cccnc1 [I-277] | ≥ 80 | – |
| CN(C(=O)c1cn(C)nc1C1CC1)c1ccnnc1 [I-324] | ≥ 80 | – |
| Cc1ccc(C(=O)N(C)c2cccnc2)cc1NC(=O)OC(C)C [I-316] | ≥ 80 | – |
| CCn1cc(C(=O)N(C)c2ccnnc2)c(C)n1 [I-327] | ≥ 80 | – |
| COC(C)c1c(C(=O)N(C)c2cccnc2)cnn1CC(F)(F)F (stereo not drawn) [I-275] | ≥ 80 | – |
| C/C=C/C(=O)Nc1cc(C(=O)N(C)c2cccnc2)ccc1C [I-317] | ≥ 80 | – |

| SMILES | pest or weed control at 500 g/ha [1] [%] | other results |
| --- | --- | --- |
| CCC(=O)Nc1cc(C(=O)N(C)c2cccnc2)ccc1C [I-310] | ≥ 80 | – |
| COCc1c(C(=O)N(C)c2cccnc2)cnn1CC(F)(F)F [I-270] | ≥ 80 | – |
| CC(C)C(=O)Nc1cccc(C(=O)N(C)c2cccnc2)c1 [I-284] | – | pest or weed control at 500 ppm [1]: ≥ 80% |
| CCc1nn(C)cc1C(=O)N(C)c1ccnnc1 [I-326] | ≥ 80 | – |
| CN(C(=O)c1cnn(-c2ncccc2Cl)c1C(F)(F)F)c1cccnc1 [I-272] | ≥ 80 | – |
| CN(C(=O)c1ccc(OC(F)(F)F)cc1)c1cccnc1 [I-266] | ≥ 80 | – |
| Cc1ccc(C(=O)N(C)c2cccnc2)cc1NC(=O)C(C)(C)C [I-305] | ≥ 80 | – |
| COc1ccc(C(=O)N(C)c2cccnc2)cc1NS(=O)(=O)C(C)C [I-334] | ≥ 80 | – |
| CCCC(=O)Nc1cc(C(=O)N(C)c2cccnc2)ccc1OC [I-336] | ≥ 80 | – |
| CN(C(=O)c1cnn(-c2ncccn2)c1C(F)F)c1cccnc1 [I-274] | ≥ 80 | – |
| COc1ccc(C(=O)N(C)c2cccnc2)cc1NC(=O)C(C)C [I-297] | ≥ 80 | – |
| CC(C)Oc1ccc(C(=O)N(C)c2cccnc2)cc1-n1ccc(C(F)(F)F)n1 [I-279] | ≥ 80 | – |
| COc1ccc(C(=O)N(C)c2cccnc2)cc1[N+](=O)[O-] [I-294] | ≥ 80 | – |
| CN(C(=O)c1cnn(-c2ncccn2)c1C(F)(F)F)c1cccnc1 [I-268, 1-Pyrimidin-2-yl-5-trifluoromethyl-1H-pyrazole-4-carboxylic acid methylpyridin-3-ylamide] | ≥ 80 | – |
| CN(C(=O)c1ccc2c(c1)OC(F)(F)O2)c1cccnc1 [I-261] | ≥ 80 | – |
| O=C(Nc1cccnc1)c1cnn(CC(F)(F)F)c1-c1cnccn1 [I-257] | ≥ 80 | – |
| CN(C(=O)c1cn(C)nc1C(F)F)c1ccnnc1 [I-319] | ≥ 80 | – |
| CCC(C)C(=O)Nc1cc(C(=O)N(C)c2cccnc2)ccc1C (stereo not drawn) [I-311] | ≥ 80 | – |
| CN(C(=O)c1cnn(CC(F)(F)F)c1C(F)(F)F)c1cccnc1 [I-330] | ≥ 80 | – |
| COc1ccc(C(=O)N(C)c2cccnc2)cc1-n1cccn1 [I-280, 4-Methoxy-N-methyl-3-pyrazol-1-yl-N-pyridin-3-ylbenzamide] | ≥ 80 | – |
| CCC(C)C(=O)Nc1cc(C(=O)N(C)c2cccnc2)ccc1OC (stereo not drawn) [I-332] | ≥ 80 | – |

| SMILES | pest or weed control at 500 g/ha [1] [%] | other results |
| --- | --- | --- |
| Cc1ccc(C(=O)N(C)c2cccnc2)cc1[N+](=O)[O-] [I-295] | ≥ 80 | – |
| O=C(Nc1cccnc1)c1ccc(OC(F)(F)F)cc1 [I-264] | ≥ 80 | – |
| CCn1ncc(C(=O)Nc2cccnc2)c1C(F)(F)F [I-287] | ≥ 80 | – |
| COCC(=O)Nc1cc(C(=O)N(C)c2cccnc2)ccc1OC [I-335] | ≥ 80 | – |
| CN(C(=O)c1ccc(F)c(NC(=O)C2CC2)c1)c1cccnc1 [I-301] | ≥ 80 | – |
| CC(C)n1ncc(C(=O)Nc2cccnc2)c1C(F)(F)F [I-285] | ≥ 80 | – |
| CC(=O)Nc1cc(C(=O)N(C)c2cccnc2)ccc1C [I-308] | ≥ 80 | – |
| CN(C(=O)c1ccc(S(C)(=O)=O)c(N)c1)c1cccnc1 [I-296] | – | pest or weed control at 500 ppm [1]: ≥ 80% |
| CC(C)n1ncc(C(=O)N(C)c2cccnc2)c1C(F)(F)F [I-329] | ≥ 80 | – |
| COc1ccc(C(=O)N(C)c2cccnc2)cc1NC(=O)OC(C)C [I-337] | ≥ 80 | – |
| CC(C)C(=O)Nc1cc(C(=O)N(C)c2cccnc2)ccc1Cl [I-299] | ≥ 80 | – |
| CC(=O)Nc1cccc(C(=O)N(C)c2cccnc2)c1 [I-283] | ≥ 80 | – |
| Cc1ccc(C(=O)N(C)c2cccnc2)cc1NC(=O)C1CCCC1 [I-312] | ≥ 80 | – |
| CC(F)c1nn(C)cc1C(=O)N(C)c1ccnnc1 (stereo not drawn) [I-321] | ≥ 80 | – |
| CN(C(=O)c1ccc(Cl)c(NC(=O)C2CC2)c1)c1cccnc1 [I-302] | ≥ 80 | – |
| CCC(=O)Nc1cc(C(=O)N(C)c2cccnc2)ccc1OC [I-331] | ≥ 80 | – |
| CC(C)c1nn(C)cc1C(=O)N(C)c1ccnnc1 [I-323] | ≥ 80 | – |
| Cc1ccc(C(=O)N(C)c2cccnc2)cc1NC(=O)C(C)C [I-300, 3-Isobutyrylamino-4,N-dimethyl-N-pyridin-3-ylbenzamide] | ≥ 80 | – |
| Cn1cc(C(=O)Nc2ccnnc2)c(C(F)(F)F)n1 [I-281] | ≥ 80 | – |
| Cc1ccc(C(=O)N(C)c2cccnc2)cn1 [I-43] | – | pest or weed control at 500 ppm [2]: ≥ 80% |
| CCSCc1ccc(C(=O)N(C)c2cccnc2)cc1 [I-58] | – | pest or weed control at 500 ppm [2]: ≥ 80% |

| SMILES | pest or weed control at 500 g/ha [1] [%] | other results |
| --- | --- | --- |
| CCN(C(=O)c1ccc(Oc2nc(C)cc(C)n2)cc1)c1cccnc1 [I-183] | – | pest or weed control at 500 ppm [2]: ≥ 80% |
| CN(C(=O)c1ccc(Oc2cnc(C(F)(F)F)nc2)nc1)c1cccnc1 [I-185] | – | pest or weed control at 500 ppm [2]: ≥ 80% |
| Cc1cc(C)nc(Oc2ccc(C(=O)N(C)c3cccnc3)cn2)n1 [I-144] | – | pest or weed control at 500 ppm [2]: ≥ 80% |
| O=C(Nc1cccnc1)c1ccc(F)c(C(F)(F)F)c1 [I-258] | ≥ 80 | – |
| CC#CCN(C(=O)c1ccc(Sc2nc(C)cc(C)n2)nc1)c1cccnc1 [I-226] | – | pest or weed control at 500 ppm [2]: ≥ 80% |
| CN(C(=O)c1cccc(Cn2cncn2)c1)c1cccnc1 [I-15] | – | pest or weed control at 500 ppm [2]: ≥ 80% |
| CCN(C(=O)c1ccc(Oc2ccc(S(C)(=O)=O)cc2)nc1)c1cccnc1 [I-154] | – | pest or weed control at 500 ppm [2]: ≥ 80% |
| N#Cc1ccc(Oc2ccc(C(=O)Nc3cccnc3)cn2)cc1 [I-164] | – | pest or weed control at 500 ppm [2]: ≥ 80% |
| COc1ccc(Sc2ccc(C(=O)N(C)c3cccnc3)cn2)cc1 [I-106] | – | pest or weed control at 500 ppm [2]: ≥ 80% |
| COc1ccc(Oc2ccc(Oc3ccc(C(=O)N(C)c4cccnc4)cn3)cc2)cc1 [I-131] | – | pest or weed control at 500 ppm [2]: ≥ 80% |
| CN(C(=O)c1ccc(NC(=O)C(F)(F)F)cc1)c1cccnc1 [I-52] | – | pest or weed control at 500 ppm [2]: ≥ 80% |
| CCN(C(=O)c1ccc(N(C)C(C)=O)cc1)c1cccnc1 [I-254] | – | pest or weed control at 500 ppm [2]: ≥ 80% |
| CCN(C(=O)c1ccc(Oc2ccc(-n3cncn3)cc2)nc1)c1cccnc1 [I-219] | – | pest or weed control at 500 ppm [2]: ≥ 80% |
| CSCc1ccc(C(=O)N(C)c2cccnc2)cn1 [I-64] | – | pest or weed control at 500 ppm [2]: ≥ 80% |
| CCN(C(=O)c1ccc(SC)cc1)c1cccnc1 [I-63] | – | pest or weed control at 500 ppm [2]: ≥ 80% |
| CSc1ccc(C(=O)Nc2cccnc2)cc1 [I-36] | – | pest or weed control at 500 ppm [2]: ≥ 80% |
| CCN(C)C(=O)c1cc(C(=O)Nc2cccnc2)ccc1OC [I-76] | – | pest or weed control at 500 ppm [2]: ≥ 80% |
| CN(C(=O)c1ccc(Oc2cccc(C#N)c2)nc1)c1cccnc1 [I-112] | – | pest or weed control at 500 ppm [2]: ≥ 80% |
| Cc1cc(C)nc(Oc2ccc(C(=O)Nc3cccnc3)cc2)n1 [I-181] | – | pest or weed control at 500 ppm [2]: ≥ 80% |
| O=C(Nc1cccnc1)c1ccc(CSC(F)F)cc1 [I-35] | – | pest or weed control at 500 ppm [2]: ≥ 80% |
| CN(C(=O)c1ccc(Oc2cccc(C(F)(F)F)c2)nc1)c1cccnc1 [I-100] | – | pest or weed control at 500 ppm [2]: ≥ 80% |
